# Key:
# [1] = tested on: tumor infiltrating T cells; assay: Tumor infiltrating T cell function (PMA/ionomycin, intracellular staining); format: in vivo, mouse; conditions: B16-OVA bearing mice, PMA and ionomycin stimulation
# Method: Tumor infiltrating leukocytes were resuspended by RPMI 1640 medium at 5×10^6 per mL in 96-well plates. Phorbol-12-myristate-13-acetate (PMA) (2.5 μg/mL) and ionomycin (0.5 μg/mL) were used to stimulate T cells together with brefeldin A were added to the culture medium for 2 hours at 37° C. Cell concentration of total lymphocytes from draining lymph node was adjusted to 5×10^6 per mL in 96-well plate. 1 μg/mL OT-1 (OVA 257-264) peptide was added to the wells and stimulated for 96 hours. Samples were stained with CD45 and CD8 on ice for 30 min. Intracellular staining was performed to quantify IFN-γ and granzyme B production.
# To explore the effects of SAA treatment on T cell function, SAA treated B16-OVA bearing mice were sacrificed to investigate tumor infiltrating T cell (TILs) function. Firstly, Phorbol-12-myristate-13-acetate (PMA) and ionomycin were used to nonspecifically stimulate tumor infiltrating T cell, then intracellular staining was performed to quantify cytokine (e.g., IFN-γ, granzyme B) production by FACS.
# B16-OVA melanoma = assay: B16-OVA tumor growth in wild-type mice; format: in vivo, mouse
# YTHDF1 (361-559) = target: T1, YTHDF1 (361-559) (Homo sapiens, UniProt Q9BYJ9); assay: NMR CPMG binding experiment; conditions: 200 μM SAA; 5 μM, 10 μM and 20 μM YTHDF1
# T1 construct: GST (N, cleaved yes); made in house; host or cells: E. coli BL21 (DE3)
# T1 sequence (Q9BYJ9 with tags, fused parts or gaps): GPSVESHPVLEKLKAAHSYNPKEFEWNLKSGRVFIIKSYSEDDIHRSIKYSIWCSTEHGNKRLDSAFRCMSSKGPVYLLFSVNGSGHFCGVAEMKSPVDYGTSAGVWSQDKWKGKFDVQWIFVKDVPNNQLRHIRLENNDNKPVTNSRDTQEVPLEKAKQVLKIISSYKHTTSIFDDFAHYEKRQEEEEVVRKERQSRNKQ
# Method: NMR CPMG experiment was performed at 25° C. using Bruker Avance III spectrometer (600 MHz proton frequency) with a cryogenically cooled probe (Bruker biospin, Germany). YTHDF1 (361-559) was diluted to 20 μM, 10 μM and 5 μM in phosphate buffer (20 mM NaH2PO4, 20 mM Na2HPO4, 150 mM NaCl, pH 7.4, D2O). […] The solvent-suppressed 1D ^1H CPMG was obtained via the pulse sequence (RD-90°-(τ-180°-τ) n-ACQ). In the pre-saturation procedure, a 54.78 dB pulse in 4 s duration of the recycle delay (RD) was applied to eliminate water resonance. Then, the 900 pulse length was modulated to 11.82 μs approximately. And at last, a total of 4 dummy scans and 64 free induction decays (FIDs) were collected into […] acquisition points, covering a spectral width of 12 kHz (20 ppm) with the acquisition time (ACQ) of 2.73 s.
# Then, qualitative and quantitative experiments were performed to explore the binding between SAA and YTHDF1. Firstly, nuclear magnetic resonance (NMR) Carr-Purcell-Meiboom-Gill (CPMG) experiments were conducted.
# OT-I T cells = assay: CFSE-labeled OT-I T cell proliferation in vitro; format: cell-based, mouse; conditions: 5×10^5 CFSE-labeled OT-I T cells, various doses, 1 μg/mL OT-I peptide 24 hours
# Method: 1×10^7 lymphocytes form lymph nodes of naïve OT-I mice were washed with PBS twice, then resuspend in 1 mL PBS. 1 μL CFSE Tracker was added into suspension and incubated in 37° C. for 5 min. Then 5 mL RPMI-1640 medium with 10% FBS was added to stop CFSE labelling, incubated at room temperature for 5 min. After centrifugation, CFSE-labeled T cells were suspended with another 5 mL RPMI-1640 medium at least for 10 min in room temperature.
# In a further experiment, 5×10^5 CFSE-labeled OT-I T cells were treated with SAA of various doses in 96-well plates, then the cells were stimulated with 1 μg/mL OT-I peptide for 24 hours. Divided T cells were analyzed by FACS.
# B16-OVA tumor = B16-OVA tumor growth in Ythdf1F/F and CD11ccreYthdf1F/F mice; format: in vivo, mouse; conditions: 2×10^6 B16-OVA, 10 μM SAA day 9 and day 11
# Method: For B6 mice tumor growth, 5×10^5 B16-OVA or 1×10^6 E.G7-OVA tumor cells were inoculated subcutaneously (s.c.) into the flank of mice. Tumor length (a) and width (b) was measured every two days and tumor volume was calculated by the formula ab^2/2. For the inhibitor treatment, 10 μM SAA or DMSO was injected intraperitoneally (i.p.) on day 9 and 11 after tumor inoculation. For other mice model (rag1^−/− and Ythdf1 conditional knockout), times and dose of inhibitor treatment was the same. For α-PD-L1 and SAA combination treatment, 5×10^5 B16-OVA tumor cells were inoculated subcutaneously into the flank of mice. 100 μg α-PD-L1 antibody (clone 10F.9G2) or rat immunoglobulin were administered at day 9 after tumor inoculation. 10 μM SAA or DMSO was administered in the same way on day 9 and 11 after tumor injection.
# To determine whether DCs are the major targets of SAA, Ythdf1^F/F and CD11c^creYthdf1^F/F mice were injected subcutaneously with 2×10^6 B16-OVA cells. Then, 10 μM SAA was injected to each mouse on day 9 and day 11, and tumor growth was monitored.
smiles,measurement,setting,value
"O=C(/C=C/c1ccc(O)c(O)c1/C=C/c1ccc(O)c(O)c1)O[C@H](Cc1ccc(O)c(O)c1)C(=O)O [SAA, Salvianolic Acid A]","cytokine (IFN-γ, granzyme B) production by tumor infiltrating T cells",[1],higher level of cytokines than DMSO group
same,tumor growth versus DMSO,"B16-OVA melanoma; 5×10^5 B16-OVA in C57BL/6 mice, 10 μM i.v. 9 days after implantation (FIG. 19)",tumor growth was much slower
same,tumor growth versus control,"B16-OVA melanoma; 5×10^5 B16-OVA s.c., 10 μM SAA on day 9 and 11",tumor growth was much slower
same,CPMG signal of the compound on addition of YTHDF1,YTHDF1 (361-559),signal decreased
same,T cell proliferation,OT-I T cells,could not influence T cell proliferation
same,tumor growth,B16-OVA tumor; CD11ccreYthdf1F/F mice,no further evident effect of tumor control
same,tumor growth,B16-OVA tumor; Ythdf1F/F mice,showed analogous situation as observed in CD11c^creYthdf1^F/F mice

# — patent US20240033244A1, “COMPOSITIONS AND METHODS FOR INHIBITING YTHDF1” (SHANGHAI INSTITUTE OF MATERIA MEDICA, CHINESE ACADEMY OF …, priority 2020, published 2024)
